Measured values as given in patent US6376510B1, “Neuromuscular relaxants” (Newlaxant LLC, priority 1997, dated 2002).
Like-named read-outs stand apart in the source and are kept apart here.

Tests used:
anesthetized monkeys = experiment: In vivo neuromuscular block and cardiovascular side effects, monkey (Example 8, Table 6); settings: for ED50: intravenous dose causing 50% neuromuscular block; for RI (recovery index): spontaneous recovery, 25-75% neuromuscular response; for Onset: time to 80-85% neuromuscular block
Method in brief: (§1)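 Electromyographic and mechanomyographic responses quantified. Monkeys sedated with intramuscular ketamine, then general anesthesia with intravenous pentobarbital and propofol; juvenile pigs induced with inhaled halothane.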

[1] = tested on: anesthetized rats (evoked responses of anterior tibial muscle); experiment: In vivo neuromuscular block and cardiovascular side effects, anesthetized rat (Example 8, Table 3); settings: for RI (recovery index): spontaneous recovery, 25-75% neuromuscular response; for Onset: time to 80-85% neuromuscular block
Method in brief: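 Pentobarbital-anesthetized (i.p.), ventilated adult male rats given saline-dissolved agents i.v.; anterior tibial EMG responses to supramaximal single or train-of-four sciatic/peroneal stimuli, plus 0.1 or 1 Hz stimulation. Doses for 50%, 80%, 90% block derived. Onset: minutes to 80-85% block; RI: 25-75% spontaneous recovery; vagal block, heart rate and blood pressure changes (%) at 80-85% blocking dose.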

rabbits = experiment: In vivo neuromuscular block and cardiovascular side effects, rabbit (Example 8, Table 7); settings: for ED50: intravenous dose causing 50% neuromuscular block; for RI (recovery index): spontaneous recovery, 25-75% neuromuscular response; for Onset: time to 80-85% neuromuscular block
dogs = experiment: animal or person; type: in vivo; settings: dog; for ED50: intravenous dose causing 50% neuromuscular block; for RI (recovery index): spontaneous recovery, 25-75% neuromuscular response; for Onset: time to 80-85% neuromuscular block
[2] = tested on: anesthetized juvenile pigs; experiment: animal or person; type: in vivo; settings: pig; for ED50: intravenous dose causing 50% neuromuscular block; for RI (recovery index): spontaneous recovery, 25-75% neuromuscular response; for Onset: time to 80-85% neuromuscular block
Method in brief: as §1

[3] = tested on: anesthetized cats (evoked responses of anterior tibial muscle); experiment: animal or person; settings: for RI (recovery index): spontaneous recovery, 25-75% neuromuscular response; for Onset: time to 80-85% neuromuscular block
Method in brief: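 Adult cats anesthetized i.p. with 70 mg/kg alpha chloralose plus 0.5 g/kg ethylurethane; agents in saline given i.v. Anterior tibial muscle responses to supramaximal single or train-of-four stimuli of sciatic or peroneal nerve recorded electromyographically and mechanomyographically, alongside blood pressure and heart rate.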

[4] = at 80-85% neuromuscular blocking dose
[5] = rat, at 80-85% neuromuscular blocking dose
[6] = cat, at 80-85% neuromuscular blocking dose

Which results are given for COc1cc(C[N+]2(C)[C@@H]3CC[C@H]2C[C@@H](OC(=O)C2CCCC(C(=O)O[C@H]4C[C@H]5CC[C@@H](C4)[N+]5(C)Cc4ccc(OC(C)=O)c(OC)c4)C2)C3)ccc1OC(C)=O.[Br-].[Br-] (stereo partly drawn) [bis[N-(4-acetoxy-3-methoxybenzyl)tropanium-3α-yl]cyclohexane-1,3-dicarboxylate dibromide]?
ED50 (anesthetized monkeys; Primates, read-out: ED50): 0.1 mg/kg; ΔBP (change in arterial blood pressure) (anesthetized monkeys; [4]): 0%; ΔH (change in heart rate) (anesthetized monkeys; [4]): 0%; RI (recovery index) (anesthetized monkeys): 0.5 min; Onset (anesthetized monkeys): 0.9 min; ED50 ([1]; Rattus norvegicus, iv): 0.27 mg/kg; VB (vagal block) [1, 5]: 30%; ΔBP (change in arterial blood pressure) [1, 5]: 0%; ΔH (change in heart rate) [1, 5]: 0%; RI (recovery index) ([1]; rat): 0.45 min; Onset ([1]; rat): 0.55 min; ED50 (rabbits; Oryctolagus cuniculus, read-out: ED50): 0.165 mg/kg; ΔBP (change in arterial blood pressure) (rabbits; [4]): 0%; ΔH (change in heart rate) (rabbits; [4]): 0%; RI (recovery index) (rabbits): 0.65 min; Onset (rabbits): 0.65 min; ED50 (dogs; Canis lupus familiaris, read-out: ED50): 0.28 mg/kg; ΔBP (change in arterial blood pressure) (dogs; [4]): −25%; ΔH (change in heart rate) (dogs; [4]): 38%; RI (recovery index) (dogs): 0.5 min; Onset (dogs): 0.75 min; ED50 ([2]; Sus scrofa, read-out: ED50): 0.183 mg/kg; VB (vagal block) [2, 4]: 65%; ΔBP (change in arterial blood pressure) [2, 4]: 0%; ΔH (change in heart rate) [2, 4]: 0%; RI (recovery index) [2]: 0.75 min; Onset [2]: 0.6 min; ED50 ([3]; Felis catus, iv): 0.325 mg/kg; VB (vagal block) [3, 6]: 33%; ΔBP (change in arterial blood pressure) [3, 6]: −5%; ΔH (change in heart rate) [3, 6]: 0%; RI (recovery index) ([3]; cat): 0.5 min; Onset ([3]; cat): 0.9 min

How did the “ΔBP (change in arterial blood pressure)” value (anesthetized monkeys; in vivo) turn out when CC(=O)Oc1ccc(C[N+]2(C)C3CCCC2CC(OC(=O)CCCCCCC(=O)OC2CC4CCCC(C2)[N+]4(C)Cc2ccc(OC(C)=O)c(OC(C)=O)c2)C3)cc1OC(C)=O.[Br-].[Br-] (stereo not drawn) [bis[N-(3,4-diacetoxybenzyl)granataninium-3-yl]suberate dibromide] was run?
Its value is 0%.

What about the “ΔH (change in heart rate)” value (anesthetized monkeys; in vivo) of the same compound?
Its value is 0%.

And the ED50 (anesthetized monkeys)?
Its ED50 is 0.2 mg/kg.

What about the “RI (recovery index)” value (anesthetized monkeys) of the same compound?
The value was 0.4 min.

What about the Onset (anesthetized monkeys) of the same compound?
Its Onset is 0.9 min.

What about the “VB (vagal block)” value ([1]; rat, in vivo) of the same compound?
The value was 60%.

And the “ΔBP (change in arterial blood pressure)” value ([1]; rat, in vivo)?
The value was 0%.

What about the “ΔH (change in heart rate)” value ([1]; rat, in vivo) of the same compound?
Its value is 0%.

What about the ED50 ([1]; rat, intravenous dose causing 50% neuromuscular block) of the same compound?
The ED50 was 0.45 mg/kg.

And the “RI (recovery index)” value ([1]; rat)?
The value was 0.35 min.

And the Onset ([1]; rat)?
The Onset was 0.4 min.

And the “ΔBP (change in arterial blood pressure)” value (rabbits; in vivo)?
The value was 0%.

What about the “ΔH (change in heart rate)” value (rabbits; in vivo) of the same compound?
Its value is 0%.

What about the ED50 (rabbits) of the same compound?
The ED50 was 0.475 mg/kg.

What about the “RI (recovery index)” value (rabbits) of the same compound?
Its value is 0.55 min.

And the Onset (rabbits)?
The Onset was 0.5 min.

And the “ΔBP (change in arterial blood pressure)” value (dogs; in vivo)?
Its value is −55%.

And the “ΔH (change in heart rate)” value (dogs; in vivo)?
The value was 60%.

What about the ED50 (dogs) of the same compound?
The ED50 was 0.25 mg/kg.

What about the “RI (recovery index)” value (dogs) of the same compound?
The value was 0.45 min.

And the Onset (dogs)?
The Onset was 0.8 min.

And the “VB (vagal block)” value ([2]; in vivo)?
The value was 80%.

And the “ΔBP (change in arterial blood pressure)” value ([2]; in vivo)?
Its value is 0%.

What about the “ΔH (change in heart rate)” value ([2]; in vivo) of the same compound?
Its value is 0%.

What about the ED50 [2] of the same compound?
The ED50 was 0.25 mg/kg.

What about the “RI (recovery index)” value [2] of the same compound?
The value was 0.8 min.

What about the Onset [2] of the same compound?
Its Onset is 0.6 min.

What about the ED50 ([3]; cat, intravenous dose causing 50% neuromuscular block) of the same compound?
The ED50 was 0.7 mg/kg.

What about the “RI (recovery index)” value ([3]; cat) of the same compound?
Its value is 0.5 min.

And the Onset ([3]; cat)?
The Onset was 0.6 min.

What about the “VB (vagal block)” value ([3]; in vivo) of the same compound?
The value was 80%.

And the “ΔBP (change in arterial blood pressure)” value ([3]; in vivo)?
Its value is −20%.

What about the “ΔH (change in heart rate)” value ([3]; in vivo) of the same compound?
Its value is 0%.
